# Experimental data reported in patent US20200158718A1, “A METHOD FOR PREDICTING TIME-TO-VIRAL CLEARANCE IN PATIENTS WITH CHRONIC HEPATITIS C VIRUS (HCV) INFECTION UNDER DIRECT ACTING ANTIVIRAL (DAA) THERAPY” (priority 2017, published 2020).
# Several values for one entry are separate records, joined by “and”; a condition that tells them apart may be missing. Equal entries are not always repeated.
# Legend:
# Format in all cases: in vivo, human
# [1] = test system: ALT, alanine aminotransferase; assay: Observational trial (training set): ALT level of chronic HCV patients under DAA therapy; settings: one line per patient (Table 3); for ALT level EOT: end of treatment; for ALT level wk 4: week 4 of therapy; for ALT level SVR12: week 12 after end of treatment
# Description: (§1) Peripheral blood samples were provided by patients with chronic HCV infection, who were participating in an observational trial (clinicaltrials.gov: NCT02904603) authorized by the local ethics committee. For a training trial, 23 patients (genotype 1a (n=10), 1b (n=9) and 3 (n=4)) were treated with daclatasvir plus sofosbuvir (DCV/SOF; n=15), ledipasvir plus sofosbuvir (LDV/SOF; n=4) or with ritonavir-boosted paritaprevir, ombitasvir, and dasabuvir (n=4).
# (§2) A sustained virological response to DAA therapy is generally achieved in 85-99% of chronic HCV patients, depending upon viral genotype, patient-related factors and the choice of treatment regime. In the present study of 23 patients with chronic HCV infection, 22 had achieved a sustained virological response at 12 weeks post-treatment (SVR12). Clearance of virus was associated with improved liver function and reduction in systemic markers of liver inflammation. Although most patients achieved sustained virological responses by 12 weeks, there was considerable variation in time to HCV RNA negativity and normalization of biochemical parameters. Baseline mean HCV RNA titer was 6.12±0.12 log 10 IU/ml, falling to 1.2±0.14 log 10 IU/ml by 4 weeks, at which time 12/23 patients were HCV RNA <12 IU/ml. HCV establishes persistent infections during which virus-specific CD4+ and CD8+ T cells become impaired through progressive functional exhaustion or clonal deletion, and intrahepatic NK cell responses are subdued. […] In particular, this study aimed to identify a minimal set of immunological markers that accurately classified patients with chronic HCV infections as “fast responders” (i.e. HCV RNA <12 IU/ml by 4 weeks) or “slow responders” (i.e. HCV RNA >12 IU/ml at 4 weeks, irrespective of later outcome). These biomarkers were to be independent of viral genotype, baseline fibrosis score, previous HCV treatment, and other patient-related factors. Therefore, the influence of the ALT levels, of the HCV genotype, of a previous treatment for chronic HCV, and the pre-treatment fibrosis score were also analyzed.
# hepatitis C virus (HCV) [2] = assay: Observational trial (training set): HCV-RNA / virological response of chronic HCV patients under DAA therapy; settings: for Response to DAA Therapy: one line per patient (Table 1, patients 1-23), SVR12 = undetectable HCV-RNA at week 12 after end of treatment, relapse = undetectable at EOT but detectable during follow-up, patients 5, 9 treated 24 weeks, patients 18, 23 treated 8 weeks; for HCV-RNA EOT / HCV-RNA wk 4 / HCV-RNA SVR12: one line per patient (Table 3); for HCV-RNA EOT: end of treatment; for HCV-RNA wk 4: week 4 of therapy; for HCV-RNA SVR12: week 12 after end of treatment
# Description: The expression “time-to-viral clearance” indicates the period until no HCV RNA detection with currently available detection methods, e.g. as measured by PCR, particularly by quantitative real-time PCR in peripheral blood samples, e.g. in samples of at least 5 ml EDTA blood or whole blood is possible. Using a standard PCR-based test, fewer than 12 copies per milliliter blood is considered to be clinically clear of HCV (Table 3).
# as §1, §2
# hepatitis C virus (HCV) [3] = assay: Prospective set: HCV-RNA at week 4 of DAA therapy in a further 10 chronic HCV patients; settings: one line per patient (Table 5, prospective set)
# Description: To verify that the model accurately predicted fast and slow responses, data were collected from a further 10 chronic HCV patients prior to DAA treatment (Table 5). In this “prospective set”, 8 patients were slow responders and 2 were fast responders: all slow responders were correctly classified as such (Table 2D). The model also correctly identified 1 of 2 fast responders. […] For the purpose of prospectively and safely shortening DAA therapy, a test with high specificity is more important than one with high sensitivity.
# To verify that the herein disclosed model accurately predicts fast and slow responses, data were collected from a further 10 chronic HCV patients prior to DAA treatment (cf. the Table 5 below).
Substance,ALT level EOT [1],ALT level wk 4 [1],ALT level SVR12 [1],Response to DAA Therapy (hepatitis C virus (HCV) [2]),HCV-RNA EOT (hepatitis C virus (HCV) [2]),HCV-RNA wk 4 (hepatitis C virus (HCV) [2]),HCV-RNA SVR12 (hepatitis C virus (HCV) [2]),Response to DAA Therapy wk 4 (hepatitis C virus (HCV) [3])
"ritonavir-boosted paritaprevir, ombitasvir, and dasabuvir [3D]",21 U/L and 15 U/L and 23 U/L,24 U/L and 17 U/L and 19 U/L,24 U/L and 21 U/L,SVR12,neg.,neg,neg.,–
ledipasvir plus sofosbuvir [SOF + LDV],31 U/L and 64 U/L and 23 U/L and 24 U/L,31 U/L and 74 U/L and 22 U/L and 24 U/L,27 U/L and 32 U/L and 21 U/L and 10 U/L,SVR12,neg.,<12 IU/ml,neg.,61 IU/ml and <12 IU/ml (2×) and 51 IU/ml and 12 IU/ml (2×) and 14 IU/ml
daclatasvir plus sofosbuvir [SOF + DCV],44 U/L and 46 U/L and 24 U/L and 45 U/L and 61 U/L and 42 U/L and 30 U/L and 70 U/L and 17 U/L and 23 U/L (2×) and 47 U/L and 22 U/L and 19 U/L and 31 U/L,38 U/L and 42 U/L and 27 U/L and 51 U/L and 47 U/L and 34 U/L (2×) and 25 U/L and 62 U/L and 22 U/L and 31 U/L and 28 U/L and 29 U/L and 24 U/L and 23 U/L,31 U/L and 35 U/L and 21 U/L (3×) and 41 U/L and 37 U/L and 43 U/L and 24 U/L and 62 U/L and 17 U/L and 107 U/L and 25 U/L and 23 U/L and 42 U/L,–,neg. (7×) and <12 IU/ml (8×),<12 IU/ml (4×) and neg,neg.,30 IU/ml
